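Interpolation was linear, between the two tested concentrations surrounding the appropriate level; five concentrations were tested over 48 hours in 96-well plates. At the GI50, growth is halved. TGI: concentration producing complete growth inhibition.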
Tests used:
Assay in all cases: NCI anticancer screen, dose series, 48 h
[1] = test system: EKVX NSCLC
[2] = test system: HCT-15 colon
[3] = test system: LOX IMVI melanoma
[4] = test system: MALME-3M melanoma
[5] = test system: MDA-MB-231 breast
[6] = test system: OVCAR-3 ovarian
[7] = test system: OVCAR-4 ovarian
[8] = test system: SK-MEL-28 melanoma
[9] = test system: T-47D breast
[10] = test system: CCRF-CEM leukemia

Structure (SMILES) | GI50 [1] [µM] | TGI [1] [µM] | GI50 [2] [µM] | TGI [2] [µM] | GI50 [3] [µM] | TGI [3] [µM] | GI50 [4] [µM] | TGI [4] [µM] | GI50 [5] [µM] | TGI [5] [µM] | GI50 [6] [µM] | TGI [6] [µM] | GI50 [7] [µM] | TGI [7] [µM] | GI50 [8] [µM] | TGI [8] [µM] | GI50 [9] [µM] | TGI [9] [µM] | GI50 [10] [µM] | TGI [10] [µM]
Fc1c[c-]c(-c2ccccn2)c(F)c1.[CH3-].[Pt+2].c1ccc(P(C[PH+](c2ccccc2)c2ccccc2)c2ccccc2)cc1 | 0.495 | 1.96 | 0.975 | 2.25 | 0.539 | 1.28 | 0.342 | 0.919 | 0.724 | 1.78 | 0.411 | 1.2 | 0.61 | 3.71 | 0.512 | 1.52 | 0.474 | 3.27 |  | 
CC(=O)[CH-]C(=O)c1ccccc1.CC(=O)[CH-]C(=O)c1ccccc1.[CH2-]CCC.[CH2-]CCC.[Sn+4] | 1.41 | 3.25 | 1.29 | 2.87 | 1.06 | 2.47 | 0.63 | 1.91 |  |  | 1.3 | 2.62 |  |  |  |  |  |  | 0.261 | 0.745
CC1(C)CC(=O)c2c(oc3cc(O)c(O)cc23)C1 |  |  |  | > 100 |  | 31.4 |  | 94.6 |  |  |  |  |  | 43.4 |  |  |  |  |  | 92
C/C(=N/NC(=O)CC(=O)N(C(=O)c1ccccc1Cl)c1ccc(C)cc1)c1cc2ccccc2oc1=O |  | > 100 |  | > 100 |  | > 100 |  | > 100 |  |  |  | > 100 |  | > 100 |  | > 100 |  |  |  | > 100
CC1=C(C(=O)CC(=O)C(=O)NC2C3CC4CC(C3)CC2C4)Sc2ccccc2N1 (centres undefined) |  | > 100 |  | > 100 |  | > 100 |  | > 100 |  |  |  | > 100 |  | > 100 |  | > 100 |  |  |  | > 87.7
O=C(/C=C/c1cn(-c2ccccc2)nc1-c1ccc([N+](=O)[O-])cc1)c1ccc(Cl)cc1 | > 22.3 | > 100 |  |  |  |  | 2.44 | 6.59 | 2.9 | > 100 |  |  |  |  |  |  | 1.22 | > 100 |  | 
NC(=O)c1cc(I)ccc1NC(=O)COc1ccccc1 |  |  | 0.33 | > 100 | 1.01 | > 100 | 7.28 | > 100 | 1.32 | 26.6 | 0.336 | 1.35 |  |  | 2.57 | > 100 | 0.556 | > 100 | 0.463 | > 100
CC1(C)C2CCC13C(=O)C1OC3(C2)C2C(=O)c3c(O)cccc3C(=O)C12 (centres undefined) | 8.37 | 21.4 | 0.362 | 0.905 |  |  | 0.29 | 1.02 | 0.472 | 1.33 | 0.18 | 0.648 |  |  | 3.58 | 21.1 | 0.906 | 6.58 | 0.212 | 1.14
c1cnc2[nH]cc(-c3csc(-c4cn(CCCN5CCCCC5)c5ccccc45)n3)c2c1 |  |  | 1.72 | 3.18 |  |  |  |  | 1.63 | 3.11 | 1.54 | 2.96 | 1.82 | 4.19 |  |  |  |  |  | 

Source: PubChem BioAssay (NCI)
